# Measurements published in PubChem BioAssay (NCI).
#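 Step 1: Grow cells in 96-well plates. Step 2: Expose to compound for 48 hours at 5 concentrations. Step 3: Interpolate endpoints linearly; if unreached, use highest concentration. GI50 = concentration required for 50% inhibition of growth. TGI: total growth inhibition.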
# Assays:
# Assay in all cases: NCI tumour cell line growth inhibition, 48 h
# 786-0 renal = tested on: 786-0 renal
# HL-60(TB) leukemia = tested on: HL-60(TB) leukemia
# NCI-H23 lung = tested on: NCI-H23 lung
# HOP-62 NSCLC = tested on: HOP-62 NSCLC
# NCI-H226 lung = tested on: NCI-H226 lung
# SK-MEL-2 melanoma = tested on: SK-MEL-2 melanoma
# SNB-75 CNS = tested on: SNB-75 CNS
# SN12C renal = tested on: SN12C renal
# NCI-H460 lung = tested on: NCI-H460 lung
# NCI/ADR-RES ovarian = tested on: NCI/ADR-RES ovarian
Compound,TGI (786-0 renal) [µM],TGI (HL-60(TB) leukemia) [µM],TGI (NCI-H23 lung) [µM],TGI (HOP-62 NSCLC) [µM],TGI (NCI-H226 lung) [µM],TGI (SK-MEL-2 melanoma) [µM],TGI (SNB-75 CNS) [µM],TGI (SN12C renal) [µM],TGI (NCI-H460 lung) [µM],GI50 (786-0 renal) [µM],GI50 (HL-60(TB) leukemia) [µM],GI50 (SNB-75 CNS) [µM],GI50 (SN12C renal) [µM],GI50 (NCI-H460 lung) [µM],GI50 (NCI/ADR-RES ovarian) [µM],TGI (NCI/ADR-RES ovarian) [µM],GI50 (NCI-H23 lung) [µM],GI50 (HOP-62 NSCLC) [µM],GI50 (NCI-H226 lung) [µM],GI50 (SK-MEL-2 melanoma) [µM]
O=C(c1nc2ccc(Cl)cc2[nH]c1=O)C(O)c1cccc([N+](=O)[O-])c1 (configuration not stated),> 100,74.1,> 100,> 100,> 100,> 100,> 100,> 100,> 100,–,–,–,–,–,–,–,–,–,–,–
CC/C(=N/O)C(C)C(=O)CCC(=O)Nc1ccc(Cl)cc1 (configuration not stated),> 100,> 100,> 100,–,> 100,> 100,> 100,> 100,> 100,–,–,–,–,–,–,–,–,–,–,–
OCC(O)C(OC1OC(CO)C(O)C(O)C1O)c1nn(-c2ccc(Cl)cc2)c2nc3cc(Cl)c(Cl)cc3nc12 (configuration not stated),> 100,–,> 100,> 100,–,–,> 100,> 100,> 100,–,–,–,–,–,–,–,–,–,–,–
Cc1cccc(/C=N/N=C(\N)NO)n1,> 100,> 100,> 100,> 100,–,> 100,80.8,> 100,> 100,–,–,–,–,–,–,–,–,–,–,–
O=C(CC(=O)c1cccc2ccccc12)C(=O)Nc1nccs1,> 100,> 100,> 100,> 100,> 100,> 100,> 100,> 100,> 100,–,–,–,–,–,–,–,–,–,–,–
CCOc1ccc2c(c1)[n+]([O-])c(-c1ccc([N+](=O)[O-])cc1)c(N)[n+]2[O-],> 100,> 100,> 100,> 100,> 100,> 100,> 100,> 100,> 100,–,–,–,–,–,–,–,–,–,–,–
CN(C)C(=S)/N=C(\N)N(C)C,> 100,> 100,> 100,> 100,> 100,> 100,> 100,> 100,> 100,–,–,–,–,–,–,–,–,–,–,–
CC(C)CCCC(C)[C@H]1CCC2C3CC=C4C[C@@H](OC(=O)CC(CC(=O)[O-])C(=O)[O-])CC[C@]4(C)C3CC[C@@]21C.N.N.[Pt+4] (some centres not stated),> 100,> 100,–,–,–,–,> 100,> 100,> 100,> 100,> 100,> 100,> 100,> 100,–,–,–,–,–,–
CNC(=O)NCCCCC(NC(=O)OCc1ccccc1)C(=O)OCc1ccccc1 (configuration not stated),32.2,32.4,67.4,29.1,> 100,61.1,41.6,51.1,> 100,–,–,–,–,–,–,–,–,–,–,–
COC(=O)c1ccc(N/C=C(/C#N)c2ccsc2)cc1,23.3,> 100,24.5,28.2,39,50.7,18.9,–,> 100,–,–,–,–,–,–,–,–,–,–,–
CC(C)=CC1(C)/C(=N\O)C(C)(CC(C)C)C(=O)N1O (configuration not stated),> 100,> 100,> 100,> 100,> 100,> 100,> 100,> 100,> 100,–,–,–,–,–,–,–,–,–,–,–
O=C(Cc1ccccc1)N/N=C(/c1nc2ccc([N+](=O)[O-])cc2[nH]c1=O)C(O)c1ccco1 (configuration not stated),> 100,> 100,> 100,> 100,> 100,> 100,> 100,> 100,> 100,–,–,–,–,–,–,–,–,–,–,–
CCOC(=O)C1=C(Nc2cccc3ccccc23)OCC1=O,> 100,–,> 100,> 100,> 100,> 100,> 100,> 100,> 100,–,–,–,–,–,–,–,–,–,–,–
CC(C)(C)c1cc(C#N)c2c(c1)C(=O)OC2(c1ccccc1)c1ccccc1C#N (configuration not stated),> 100,> 100,> 100,> 100,> 100,> 100,> 100,> 100,> 100,–,–,–,–,–,–,–,–,–,–,–
CC(C)(C)[Si](C)(C)O/N=C\c1cccc(O[Si](C)(C)C(C)(C)C)c1,35.1,36.8,–,38.9,–,35.3,31.8,36.6,32.6,–,–,–,–,–,–,–,–,–,–,–
O=CCC(O)C(O)C(O)CO (configuration not stated),> 100,–,> 100,> 100,> 100,> 100,–,> 100,> 100,> 100,–,–,> 100,> 100,> 100,> 100,> 100,> 100,> 100,> 100
COC(=O)CCC(=O)Nc1cc(C)ccc1C,> 100,> 100,> 100,> 100,> 100,> 100,> 100,> 100,> 100,–,–,–,–,–,–,–,–,–,–,–
